In patent US12404265B2, “Substituted pyridine derivatives as SARM1 inhibitors” (Nura Bio, Inc., priority 2020, dated 2025):

target: T1, human SARM1(50-724) (Homo sapiens, UniProt Q6SZW1); experiment: SARM1 NADase biochemical assay (HPLC of NAD and NAM); conditions: 40 nM human SARM1(50-724), 0.3 mM NMN, 20 μM NAD, 60 minutes room temperature; dose-response from 100 μM, 1:3 dilution
T1 construct: 40 nM human SARM1(50-724)
T1 sequence (Q6SZW1 50-724): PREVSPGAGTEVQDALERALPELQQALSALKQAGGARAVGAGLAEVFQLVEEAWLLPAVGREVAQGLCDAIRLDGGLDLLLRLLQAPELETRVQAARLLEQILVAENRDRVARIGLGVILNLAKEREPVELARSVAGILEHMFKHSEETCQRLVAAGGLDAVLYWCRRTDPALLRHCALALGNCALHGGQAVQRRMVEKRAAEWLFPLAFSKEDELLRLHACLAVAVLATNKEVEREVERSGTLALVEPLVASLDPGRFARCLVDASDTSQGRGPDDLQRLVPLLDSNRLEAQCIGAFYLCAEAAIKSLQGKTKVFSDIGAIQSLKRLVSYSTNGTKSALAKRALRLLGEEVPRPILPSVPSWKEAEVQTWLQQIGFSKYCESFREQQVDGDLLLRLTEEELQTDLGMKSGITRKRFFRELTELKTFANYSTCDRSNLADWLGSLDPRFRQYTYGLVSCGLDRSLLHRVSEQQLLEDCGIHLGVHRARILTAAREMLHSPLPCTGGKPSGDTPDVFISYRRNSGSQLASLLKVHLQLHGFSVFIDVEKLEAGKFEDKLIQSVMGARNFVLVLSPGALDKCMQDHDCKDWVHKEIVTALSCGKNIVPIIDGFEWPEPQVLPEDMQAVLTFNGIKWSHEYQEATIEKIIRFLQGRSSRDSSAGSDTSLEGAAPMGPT
Experimental: Each reaction was run at a volume of 20 μL containing 50 μM compound (dissolved in DMSO; final concentration of DMSO is 1% v/v), 40 nM human SARM1(50-724), 0.3 mM NMN, 20 μM NAD, 1 mM TCEP, 25 mM HEPES pH 7.4, 10 mM KCl and 10 mM MgCl2. The reaction was incubated at room temperature for 60 minutes and quenched with 20 μL of 0.4% formic acid. The samples were run on Agilent HPLC 1260 Infinity II with Synergi 2.5 μM Fusion-RP 100 Å (100×3.0 mm) LC column from Phenomenex. Total run time for each sample was 4 minutes. The run was isocratic with 1.5% methanol in 40 mM ammonium acetate pH 6.0. Samples were run at a flow rate of 0.8 mL/min at 55° C. Peak areas of NAD and NAM were determined using OpenLAB CDS (Chem Station edition) software. For dose-response, the compound was diluted serially 1:3 in DMSO and added to the reaction starting at a final compound concentration of 100 μM in 1% DMSO.

Row | Compound | IC50 [nM]
1 | Cc1c(-c2ccncc2)n[nH]c1NC(=O)COc1ccc(Cl)cc1 [Example 62, 2-(4-Chlorophenoxy)-N-(4-methyl-3-(pyridin-4-yl)-1H-pyrazol-5-yl)acetamide] | < 1000
2 | Cc1c(-c2ccncc2)n[nH]c1NC(=O)CCc1ccc(Cl)c(F)c1 [Example 64, 3-(4-Chloro-3-fluorophenyl)-N-(4-methyl-3-(pyridin-4-yl)-1H-pyrazol-5-yl)propanamide] | < 1000
3 | Cc1c(-c2ccncc2)n[nH]c1NC(=O)CC1CCc2cc(Cl)ccc21 (stereo not drawn) [Example 67, 2-(5-Chloro-2,3-dihydro-1H-inden-1-yl)-N-[4-methyl-3-(pyridin-4-yl)-1H-pyrazol-5-yl]acetamide] | < 1000
4 | Cc1c(-c2ccncc2)n[nH]c1NC(=O)CC1CCCc2cc(Cl)ccc21 (stereo not drawn) [Example 68, 2-(6-Chloro-1,2,3,4-tetrahydronaphthalen-1-yl)-N-[4-methyl-3-(pyridin-4-yl)-1H-pyrazol-5-yl]acetamide] | 1000 to 10000
5 | Cc1c(-c2ccncc2)n[nH]c1NC(=O)/C(F)=C(\F)c1ccc(Cl)cc1 [Example 69, (E)-3-(4-chlorophenyl)-2,3-difluoro-N-(4-methyl-3-(pyridin-4-yl)-1H-pyrazol-5-yl)acrylamide] | 1000 to 10000
6 | Cc1c(-c2ccncc2)n[nH]c1NC(=O)C#Cc1ccc(Cl)cc1 [Example 72, 3-(4-Chlorophenyl)-N-(4-methyl-3-(pyridin-4-yl)-1H-pyrazol-5-yl)propiolamide] | 1000 to 10000
7 | Cc1c(-c2ccncc2)n[nH]c1NC(=O)CCc1ccc(Cl)s1 [Example 74] | < 1000
8 | Cc1c(-c2ccncc2)n[nH]c1NC(=O)CCc1cnc(Cl)s1 [Example 75, 3-(2-Chlorothiazol-5-yl)-N-(4-methyl-3-(pyridin-4-yl)-1H-pyrazol-5-yl)propanamide] | < 1000
9 | Cc1c(-c2ccncc2)n[nH]c1NC(=O)CCc1ncc(Cl)s1 [Example 76] | 1000 to 10000
10 | Cc1c(-c2ccncc2)n[nH]c1NC(=O)CNc1ccc(Cl)cc1 [Example 79, 2-((4-Chlorophenyl)amino)-N-(4-methyl-3-(pyridin-4-yl)-1H-pyrazol-5-yl)acetamide] | < 1000
11 | Cc1c(NC(=O)CCc2ccc(Cl)nc2)cnn1-c1ccncc1 [Example 82] | < 1000
12 | Cc1c(NC(=O)CCc2cc(F)c(Cl)c(F)c2)cnn1-c1ccncc1 [Example 83, 3-(4-Chloro-3,5-difluorophenyl)-N-(5-methyl-1-(pyridin-4-yl)-1H-pyrazol-4-yl)propanamide] | < 1000
13 | O=C(CCc1ccc(Cl)cc1)Nc1cnn(-c2ccncc2)c1Cl [Example 90] | < 1000
14 | N#Cc1c(F)cc(CCC(=O)Nc2cnn(-c3ccncc3)c2Cl)cc1F [Example 93, N-(5-Chloro-1-(pyridin-4-yl)-1H-pyrazol-4-yl)-3-(4-cyano-3,5-difluorophenyl)propanamide] | < 1000
15 | O=C(CCc1ccc(Cl)cc1)Nc1cnn(-c2ccncc2)c1C(F)(F)F [Example 95, 3-(4-Chlorophenyl)-N-(1-(pyridin-4-yl)-5-(trifluoromethyl)-1H-pyrazol-4-yl)propanamide] | < 1000
16 | O=C(CCc1ccc2c(c1)OCO2)Nc1cc(-c2ccncc2)n[nH]1 [Example 99, 3-(Benzo[d][1,3]dioxol-5-yl)-N-(3-(pyridin-4-yl)-1H-pyrazol-5-yl)propanamide] | 1000 to 10000
17 | O=C(CCc1cccc(Cl)c1)Nc1cc(-c2ccncc2)n[nH]1 [Example 100, 3-(3-Chlorophenyl)-N-(3-(pyridin-4-yl)-1H-pyrazol-5-yl)propanamide] | 1000 to 10000
18 | N#Cc1ccc(CCC(=O)Nc2cc(-c3ccncc3)n[nH]2)cc1F [Example 103] | < 1000

More lines, now with the values ahead:

Row | IC50 [nM] | Compound
19 | < 1000 | Cc1c(-c2ccncc2)n[nH]c1NC(=O)CSc1ccc(Cl)cc1 [Example 63, 2-((4-Chlorophenyl)thio)-N-(4-methyl-3-(pyridin-4-yl)-1H-pyrazol-5-yl)acetamide]
20 | < 1000 | Cc1c(-c2ccncc2)n[nH]c1NC(=O)CCc1cc(F)c(C#N)c(F)c1 [Example 65, 3-(4-Cyano-3,5-difluorophenyl)-N-(4-methyl-3-(pyridin-4-yl)-1H-pyrazol-5-yl)propanamide]
21 | 1000 to 10000 | Cc1c(-c2ccncc2)n[nH]c1NC(=O)CC1CCCc2ccccc21 (stereo not drawn) [Example 66, N-[4-Methyl-3-(pyridin-4-yl)-1H-pyrazol-5-yl]-2-(1,2,3,4-tetrahydronaphthalen-1-yl)acetamide]
22 | < 1000 | Cc1c(-c2ccncc2)n[nH]c1NC(=O)CCc1cc(Cl)cs1 [Example 73]
23 | 1000 to 10000 | Cc1c(-c2ccncc2)n[nH]c1NC(=O)CCn1cc(Cl)cn1 [Example 77, 3-(4-Chloro-1H-pyrazol-1-yl)-N-(4-methyl-3-(pyridin-4-yl)-1H-pyrazol-5-yl)propenamide]
24 | < 1000 | Cc1c(-c2ccncc2)n[nH]c1NC(=O)CCc1cc(Cl)no1 [Example 78, 3-(3-Chloroisoxazol-5-yl)-N-(4-methyl-3-(pyridin-4-yl)-1H-pyrazol-5-yl)propanamide]
25 | 1000 to 10000 | Cc1c(-c2ccncc2)n[nH]c1NC(=O)C(F)(F)Cc1ccc(Cl)cc1 [Example 80, 3-(4-Chlorophenyl)-2,2-difluoro-N-(4-methyl-3-(pyridin-4-yl)-1H-pyrazol-5-yl)propanamide]
26 | < 1000 | Cc1c(NC(=O)CSc2ccc(Cl)cc2)cnn1-c1ccncc1 [Example 81, 2-((4-Chlorophenyl)thio)-N-(5-methyl-1-(pyridin-4-yl)-1H-pyrazol-4-yl)acetamide]
27 | < 1000 | Cc1c(NC(=O)CCc2cc(F)c(F)c(F)c2)cnn1-c1ccncc1 [Example 84, N-(5-Methyl-1-(pyridin-4-yl)-1H-pyrazol-4-yl)-3-(3,4,5-trifluorophenyl)propanamide]
28 | 1000 to 10000 | Cc1c(NC(=O)COc2ccc(Cl)cc2)cnn1-c1ccncc1 [Example 85, 2-(4-Chlorophenoxy)-N-(5-methyl-1-(pyridin-4-yl)-1H-pyrazol-4-yl)acetamide]
29 | < 1000 | Cc1c(NC(=O)CCc2ccc(Cl)cc2)cnn1-c1ccncc1 [Example 86]
30 | < 1000 | O=C(CCc1cc(F)c(Cl)c(F)c1)Nc1cnn(-c2ccncc2)c1 [Example 88, 3-(4-Chloro-3,5-difluorophenyl)-N-[1-(pyridin-4-yl)-1H-pyrazol-4-yl]propanamide]
31 | 1000 to 10000 | O=C(CCc1ccc(Cl)cc1)Nc1cnn(-c2ccncc2)c1 [Example 89, 3-(4-Chlorophenyl)-N-(1-(pyridin-4-yl)-1H-pyrazol-4-yl)propanamide]
32 | < 1000 | O=C(CCc1cc(F)c(Cl)c(F)c1)Nc1cnn(-c2ccncc2)c1Cl [Example 91, N-(5-Chloro-1-(pyridin-4-yl)-1H-pyrazol-4-yl)-3-(4-chloro-3,5-difluorophenyl)propanamide]
33 | < 1000 | O=C(CCc1cc(F)c(F)c(F)c1)Nc1cnn(-c2ccncc2)c1Cl [Example 92, N-(5-Chloro-1-(pyridin-4-yl)-1H-pyrazol-4-yl)-3-(3,4,5-trifluorophenyl)propanamide]
34 | < 1000 | N#Cc1ccc(CCC(=O)Nc2cnn(-c3ccncc3)c2Cl)cc1F [Example 94, N-(5-Chloro-1-(pyridin-4-yl)-1H-pyrazol-4-yl)-3-(4-cyano-3-fluorophenyl)propanamide]
35 | < 1000 | O=C(CCc1ccc(Cl)cc1)Nc1[nH]nc(-c2ccncc2)c1Cl [Example 96, N-(4-Chloro-3-(pyridin-4-yl)-1H-pyrazol-5-yl)-3-(4-chlorophenyl)propanamide]
36 | < 1000 | O=C(CCc1cc(F)c(Cl)c(F)c1)Nc1[nH]nc(-c2ccncc2)c1Cl [Example 97, 3-(4-Chloro-3,5-difluorophenyl)-N-(4-chloro-3-(pyridin-4-yl)-1H-pyrazol-5-yl)propanamide]
37 | < 1000 | O=C(CCc1ccc(Cl)cc1)Nc1cc(-c2ccncc2)n[nH]1 [Example 98, 3-(4-Chlorophenyl)-N-(3-(pyridin-4-yl)-1H-pyrazol-5-yl)propanamide]
38 | < 1000 | O=C(CCc1cc(F)c(Cl)c(F)c1)Nc1cc(-c2ccncc2)n[nH]1 [Example 101, 3-(4-Chloro-3,5-difluorophenyl)-N-(3-(pyridin-4-yl)-1H-pyrazol-5-yl)propanamide]
39 | < 1000 | O=C(CCc1cc(F)c(F)c(F)c1)Nc1cc(-c2ccncc2)n[nH]1 [Example 102, N-(3-(Pyridin-4-yl)-1H-pyrazol-5-yl)-3-(3,4,5-trifluorophenyl)propanamide]
